In PubChem BioAssay (NCI):
Values joined by “and” are separate entries in the source; they are usually repeats but may differ in a detail not shown here. Equal values may be shown once.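 Protocol summary: plate cells (96-well), add compound at 5 concentrations, incubate 48 h, interpolate endpoints linearly. At the GI50, growth is halved. TGI marks complete inhibition of growth.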

What was measured:
Assay in all cases: NCI-60 cell line screen, 48 h
DMS 273 small cell lung = tested on: DMS 273 small cell lung
HOP-62 NSCLC = tested on: HOP-62 NSCLC
HOP-92 NSCLC = tested on: HOP-92 NSCLC
NCI-H23 lung = tested on: NCI-H23 lung
NCI-H460 lung = tested on: NCI-H460 lung
OVCAR-4 ovarian = tested on: OVCAR-4 ovarian
SK-MEL-2 melanoma = tested on: SK-MEL-2 melanoma
SNB-19 CNS = tested on: SNB-19 CNS
SNB-75 CNS = tested on: SNB-75 CNS
UO-31 renal = tested on: UO-31 renal

SMILES: c1ccc(CN(Cn2cccn2)Cn2cccn2)nc1
- TGI (DMS 273 small cell lung): > 100 µM
- TGI (HOP-62 NSCLC): > 100 µM
- TGI (HOP-92 NSCLC): > 100 µM
- TGI (NCI-H23 lung): > 100 µM
- TGI (NCI-H460 lung): > 100 µM
- TGI (OVCAR-4 ovarian): > 100 µM
- TGI (SK-MEL-2 melanoma): > 100 µM
- TGI (SNB-19 CNS): > 100 µM
- TGI (SNB-75 CNS): > 100 µM
- TGI (UO-31 renal): > 100 µM

SMILES: O=c1cnn2c(n1)sc1ccc3ccccc3c12
- TGI (DMS 273 small cell lung): > 100 µM
- TGI (HOP-62 NSCLC): > 100 µM
- TGI (HOP-92 NSCLC): > 100 µM
- TGI (NCI-H23 lung): > 100 µM
- TGI (NCI-H460 lung): > 100 µM
- TGI (OVCAR-4 ovarian): > 100 µM
- TGI (SK-MEL-2 melanoma): > 100 µM
- TGI (SNB-19 CNS): > 100 µM
- TGI (SNB-75 CNS): > 100 µM
- TGI (UO-31 renal): > 100 µM

SMILES: Cc1ccccc1CN1CC=c2ccccc2=N1
- TGI (DMS 273 small cell lung): > 100 µM
- TGI (HOP-62 NSCLC): > 100 µM
- TGI (HOP-92 NSCLC): > 100 µM
- TGI (NCI-H23 lung): > 100 µM
- TGI (NCI-H460 lung): > 100 µM
- TGI (OVCAR-4 ovarian): > 100 µM
- TGI (SK-MEL-2 melanoma): > 100 µM
- TGI (SNB-19 CNS): > 100 µM
- TGI (SNB-75 CNS): > 100 µM
- TGI (UO-31 renal): > 100 µM

SMILES: CC(C)(C)c1ccc(C(O)c2ccc(C(C)(C)C)cc2)cc1
- TGI (DMS 273 small cell lung): 25.9 µM
- TGI (HOP-62 NSCLC): 30 µM
- TGI (HOP-92 NSCLC): 25.2 µM
- TGI (NCI-H23 lung): 25.5 µM
- TGI (NCI-H460 lung): 26.6 µM
- TGI (OVCAR-4 ovarian): 28.5 µM
- TGI (SK-MEL-2 melanoma): 29.4 µM
- TGI (SNB-19 CNS): 31.8 µM
- TGI (SNB-75 CNS): 33.9 µM
- TGI (UO-31 renal): 29.7 µM

SMILES: NC1=N/C(=C2/CCNC(=O)c3[nH]c(Br)cc32)C(=O)N1
- TGI (DMS 273 small cell lung): > 100 µM
- TGI (HOP-62 NSCLC): > 100 µM
- TGI (HOP-92 NSCLC): 63.8 µM and 81.5 µM
- TGI (NCI-H23 lung): > 100 µM
- TGI (NCI-H460 lung): > 100 µM
- TGI (OVCAR-4 ovarian): 46.4 µM and 40.5 µM
- GI50 (SK-MEL-2 melanoma): 0.975 µM and 2.9 µM
- TGI (SK-MEL-2 melanoma): 8.72 µM and 26.3 µM
- TGI (SNB-19 CNS): > 100 µM
- TGI (SNB-75 CNS): > 91.5 µM
- TGI (UO-31 renal): > 73 µM and 29.8 µM

SMILES: CC1OC(OCC2COC(O)(Oc3c(-c4ccc(O)c(O)c4)oc4cc(O)cc(O)c4c3=O)C(O)C2O)C(O)C(O)C1O (stereo not drawn)
- TGI (DMS 273 small cell lung): > 100 µM
- TGI (HOP-62 NSCLC): > 100 µM
- TGI (HOP-92 NSCLC): > 100 µM
- TGI (NCI-H23 lung): > 100 µM
- TGI (NCI-H460 lung): > 100 µM
- TGI (OVCAR-4 ovarian): > 100 µM
- TGI (SNB-19 CNS): > 100 µM
- TGI (SNB-75 CNS): > 100 µM
- TGI (UO-31 renal): > 100 µM

SMILES: CCN(CC)C(=O)COc1ccc(Br)cc1Br
- TGI (DMS 273 small cell lung): > 100 µM
- TGI (HOP-62 NSCLC): > 100 µM
- TGI (HOP-92 NSCLC): > 100 µM
- TGI (NCI-H23 lung): > 100 µM
- TGI (NCI-H460 lung): > 100 µM
- TGI (OVCAR-4 ovarian): > 100 µM
- TGI (SK-MEL-2 melanoma): > 100 µM
- TGI (SNB-19 CNS): > 100 µM
- TGI (SNB-75 CNS): > 100 µM
- TGI (UO-31 renal): > 100 µM

SMILES: Cc1ccccc1C(C#N)C(=O)C(=O)Nc1cccc(Cl)c1 (stereo not drawn)
- TGI (DMS 273 small cell lung): > 100 µM
- TGI (HOP-62 NSCLC): > 100 µM
- TGI (HOP-92 NSCLC): > 100 µM
- TGI (NCI-H23 lung): > 100 µM
- TGI (NCI-H460 lung): > 100 µM
- TGI (SK-MEL-2 melanoma): > 100 µM
- TGI (SNB-19 CNS): > 100 µM
- TGI (SNB-75 CNS): > 100 µM
- TGI (UO-31 renal): > 100 µM

SMILES: NC(=S)N/N=C1/C(=O)N(c2ccc(Cl)cc2Cl)C(=O)C(=O)C1c1nc2ccccc2s1 (stereo not drawn)
- TGI (DMS 273 small cell lung): > 100 µM
- TGI (HOP-62 NSCLC): > 100 µM
- TGI (HOP-92 NSCLC): > 100 µM
- TGI (NCI-H23 lung): > 100 µM
- TGI (NCI-H460 lung): > 100 µM
- TGI (OVCAR-4 ovarian): > 100 µM
- TGI (SK-MEL-2 melanoma): > 100 µM
- TGI (SNB-19 CNS): > 100 µM
- TGI (SNB-75 CNS): > 100 µM
- TGI (UO-31 renal): > 100 µM

SMILES: COc1ccc(/C=C2\CCC(C)(CN(C)C)C2=O)cc1 (stereo not drawn)
- TGI (DMS 273 small cell lung): > 100 µM
- TGI (HOP-62 NSCLC): > 100 µM
- TGI (HOP-92 NSCLC): > 100 µM
- TGI (NCI-H23 lung): > 100 µM
- TGI (NCI-H460 lung): > 100 µM
- TGI (OVCAR-4 ovarian): > 100 µM
- TGI (SK-MEL-2 melanoma): > 100 µM
- TGI (SNB-19 CNS): > 100 µM
- TGI (SNB-75 CNS): > 100 µM
- TGI (UO-31 renal): > 100 µM

SMILES: CC1=C(C(=O)NCc2ccccc2)C(c2ccccc2[N+](=O)[O-])C(C(=O)NCc2ccccc2)=C(C)N1
- TGI (DMS 273 small cell lung): 25.4 µM
- TGI (HOP-62 NSCLC): 35.1 µM
- TGI (HOP-92 NSCLC): 36.6 µM
- TGI (NCI-H23 lung): 25.4 µM
- TGI (NCI-H460 lung): 31.4 µM
- TGI (OVCAR-4 ovarian): 22.9 µM
- TGI (SNB-19 CNS): 27.5 µM
- TGI (SNB-75 CNS): 26.6 µM
- TGI (UO-31 renal): 27 µM
